Assay results taken from ChEMBL document CHEMBL1201862, “PubChem BioAssay data set” (2004).
Activity calls are given as the source filed them.

Assays:
Hexokinase HKDC1 = target: T1, Hexokinase HKDC1 (Homo sapiens, UniProt Q2TB90); test: HKDC1 hexokinase activators, dose response, biochemical, W721R variant (AID 504730); type: functional
T1 sequence (Q2TB90 whole entry): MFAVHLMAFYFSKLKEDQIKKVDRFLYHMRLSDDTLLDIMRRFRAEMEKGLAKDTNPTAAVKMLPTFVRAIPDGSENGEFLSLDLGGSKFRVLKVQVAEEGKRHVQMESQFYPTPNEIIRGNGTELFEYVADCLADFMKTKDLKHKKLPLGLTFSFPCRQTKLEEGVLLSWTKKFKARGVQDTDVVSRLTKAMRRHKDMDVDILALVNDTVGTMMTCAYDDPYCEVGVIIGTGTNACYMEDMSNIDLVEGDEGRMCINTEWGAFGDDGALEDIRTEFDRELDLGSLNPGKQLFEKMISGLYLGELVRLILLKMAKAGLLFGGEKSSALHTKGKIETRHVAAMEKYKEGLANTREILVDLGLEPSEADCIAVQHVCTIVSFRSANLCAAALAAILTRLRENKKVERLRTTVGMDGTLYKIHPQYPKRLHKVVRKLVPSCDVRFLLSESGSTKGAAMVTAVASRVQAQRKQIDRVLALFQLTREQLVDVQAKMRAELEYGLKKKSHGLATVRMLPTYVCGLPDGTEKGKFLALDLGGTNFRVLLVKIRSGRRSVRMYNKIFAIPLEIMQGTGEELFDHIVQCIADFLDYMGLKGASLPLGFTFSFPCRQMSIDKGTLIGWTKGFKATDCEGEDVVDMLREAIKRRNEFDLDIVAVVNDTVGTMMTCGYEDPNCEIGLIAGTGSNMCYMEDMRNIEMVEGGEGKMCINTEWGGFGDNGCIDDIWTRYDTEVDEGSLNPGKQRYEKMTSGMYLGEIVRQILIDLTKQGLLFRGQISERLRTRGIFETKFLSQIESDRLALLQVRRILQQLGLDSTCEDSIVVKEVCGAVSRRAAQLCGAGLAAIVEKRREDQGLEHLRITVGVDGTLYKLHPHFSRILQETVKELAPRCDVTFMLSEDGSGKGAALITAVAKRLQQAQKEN

[1] = target: T2, Ubiquitin-conjugating enzyme E2 N (Homo sapiens, UniProt P61088); type: functional;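 note: Dose-response confirmation in a TR-FRET assay detecting UBC13-driven polyubiquitin chain formation, inhibition measured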
T2 sequence (P61088 whole entry): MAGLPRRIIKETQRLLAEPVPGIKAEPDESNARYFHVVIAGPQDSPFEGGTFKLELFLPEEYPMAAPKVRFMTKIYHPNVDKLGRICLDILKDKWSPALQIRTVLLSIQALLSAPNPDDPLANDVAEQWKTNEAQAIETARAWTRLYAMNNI

[2] = cytotoxicity in KRAS-transformed pancreatic duct cells, primary screen, cell-based, fluorescence, HTS (AID 431); type: functional; details: Homo sapiens;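 note: cell line used: HPDE-C7K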
[3] = A Cell Based Secondary Assay To Explore Cytotoxicity of Compounds that Sensitize Mycobacterium Tuberculosis to Beta-Lactam Antibiotics.; type: functional
[4] = cytotoxicity in HPDE-C7 cells, cell-based, fluorescence, HTS (AID 430); type: functional; details: Homo sapiens
Escherichia coli = test: microbe, parasite or virus in culture
CAAX prenyl protease 2 = target: T3, CAAX prenyl protease 2 (Saccharomyces cerevisiae S288c, UniProt Q03530); type: biochemical
T3 sequence (Q03530 whole entry): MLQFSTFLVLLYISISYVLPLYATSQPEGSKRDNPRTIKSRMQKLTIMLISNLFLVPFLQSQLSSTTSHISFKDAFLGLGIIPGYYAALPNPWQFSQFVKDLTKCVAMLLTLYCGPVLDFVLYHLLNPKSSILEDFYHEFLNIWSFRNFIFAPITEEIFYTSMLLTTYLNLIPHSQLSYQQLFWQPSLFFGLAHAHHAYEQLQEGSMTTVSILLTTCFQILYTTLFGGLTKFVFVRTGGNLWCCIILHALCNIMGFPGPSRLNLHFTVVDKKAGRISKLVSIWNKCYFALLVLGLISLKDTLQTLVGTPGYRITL

CAAX prenyl protease 1 = CAAX prenyl protease 1 (Saccharomyces cerevisiae S288c, UniProt P47154); test: Ste24 protease inhibitors, dose response, biochemical, S. cerevisiae, plate reader, cherry-pick (AID 488815)
Genome polyprotein = Genome polyprotein (dengue virus type 2, UniProt P29990); test: Dengue-2 NS5 methyltransferase inhibitors, primary screen, biochemical, confirmation dose response (AID 588689); type: functional
[5] = target: Intestinal-type alkaline phosphatase (Homo sapiens, UniProt P09923); test: inhibition of human intestinal alkaline phosphatase – biochemical, dose response (AID 488876); type: functional
[6] = target: Intestinal-type alkaline phosphatase (Mus musculus, UniProt P24822); test: PubChem AID 488785; type: functional
[7] = target: T4, RNA-binding protein pos-1 (Caenorhabditis elegans, UniProt G5EF15); test: inhibitors of POS-1/mex-3 RNA binding, dose response, biochemical, fluorescence polarization (AID 1964);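 note: purified POS-1 fused to maltose binding protein made in E. coli; potency of compounds blocking POS-1 binding to fluorescent RNA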
T4 sequence (G5EF15 whole entry): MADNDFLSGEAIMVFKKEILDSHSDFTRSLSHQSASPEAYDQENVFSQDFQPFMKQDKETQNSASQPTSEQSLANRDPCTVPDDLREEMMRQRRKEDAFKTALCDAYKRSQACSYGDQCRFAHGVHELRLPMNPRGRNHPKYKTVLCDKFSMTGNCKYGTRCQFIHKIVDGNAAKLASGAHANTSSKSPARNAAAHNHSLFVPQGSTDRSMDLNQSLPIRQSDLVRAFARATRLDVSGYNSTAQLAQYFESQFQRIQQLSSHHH

[8] = target: T5, Alkaline phosphatase, tissue-nonspecific isozyme (Homo sapiens, UniProt P05186); test: TNAP enzyme inhibition by screening hits, dose response, selectivity assay for mouse IAP inhibitor project, biochemical, human TNAP, uHTS hits (AID 488906); type: functional
T5 sequence (P05186 whole entry): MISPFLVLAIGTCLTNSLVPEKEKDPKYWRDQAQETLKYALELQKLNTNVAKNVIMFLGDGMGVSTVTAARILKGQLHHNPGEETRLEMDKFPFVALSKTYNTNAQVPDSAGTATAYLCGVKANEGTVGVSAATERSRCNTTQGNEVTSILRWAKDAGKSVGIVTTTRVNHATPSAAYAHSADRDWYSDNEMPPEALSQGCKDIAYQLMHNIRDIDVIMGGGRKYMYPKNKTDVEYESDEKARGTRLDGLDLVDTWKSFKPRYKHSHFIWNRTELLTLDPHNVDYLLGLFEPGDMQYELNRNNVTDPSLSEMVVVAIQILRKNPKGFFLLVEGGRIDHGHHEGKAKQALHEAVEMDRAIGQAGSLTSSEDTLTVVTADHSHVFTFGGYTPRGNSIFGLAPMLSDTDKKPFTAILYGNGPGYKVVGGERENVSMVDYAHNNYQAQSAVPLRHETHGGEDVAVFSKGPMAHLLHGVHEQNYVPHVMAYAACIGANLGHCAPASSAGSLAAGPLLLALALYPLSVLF

[9] = target: DNA (cytosine-5)-methyltransferase 1 (Homo sapiens, UniProt P26358); test: DNMT1 methyltransferase inhibitors, confirmation, biochemical, fluorescent molecular beacon (AID 602386); type: functional
[10] = target: T6, Zinc finger protein mex-5 (Caenorhabditis elegans, UniProt Q9XUB2); test: MEX-5/TCR-2 RNA interaction inhibitors, dose response, biochemical, C. elegans, fluorescence polarization (AID 1960)
T6 sequence (Q9XUB2 whole entry): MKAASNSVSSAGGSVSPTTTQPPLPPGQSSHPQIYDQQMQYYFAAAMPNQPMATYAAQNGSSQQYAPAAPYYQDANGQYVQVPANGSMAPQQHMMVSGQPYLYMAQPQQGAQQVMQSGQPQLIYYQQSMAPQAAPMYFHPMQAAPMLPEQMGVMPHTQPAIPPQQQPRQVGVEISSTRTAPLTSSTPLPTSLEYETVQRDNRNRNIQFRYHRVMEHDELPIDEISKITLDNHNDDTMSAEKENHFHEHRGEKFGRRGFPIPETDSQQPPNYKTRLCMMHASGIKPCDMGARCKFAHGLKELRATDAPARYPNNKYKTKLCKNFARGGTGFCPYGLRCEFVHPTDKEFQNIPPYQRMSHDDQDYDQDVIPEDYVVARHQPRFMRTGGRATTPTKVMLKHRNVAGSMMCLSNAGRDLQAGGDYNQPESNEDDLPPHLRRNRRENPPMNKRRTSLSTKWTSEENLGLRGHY

Cytochrome P450 2C9 = Cytochrome P450 2C9 (Homo sapiens, UniProt P11712)
Cytochrome P450 1A2 = target: T7, Cytochrome P450 1A2 (Homo sapiens, UniProt P05177);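 note: PubChem cytochrome P450 panel assay, CYP1A2 panel member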
T7 sequence (P05177 whole entry): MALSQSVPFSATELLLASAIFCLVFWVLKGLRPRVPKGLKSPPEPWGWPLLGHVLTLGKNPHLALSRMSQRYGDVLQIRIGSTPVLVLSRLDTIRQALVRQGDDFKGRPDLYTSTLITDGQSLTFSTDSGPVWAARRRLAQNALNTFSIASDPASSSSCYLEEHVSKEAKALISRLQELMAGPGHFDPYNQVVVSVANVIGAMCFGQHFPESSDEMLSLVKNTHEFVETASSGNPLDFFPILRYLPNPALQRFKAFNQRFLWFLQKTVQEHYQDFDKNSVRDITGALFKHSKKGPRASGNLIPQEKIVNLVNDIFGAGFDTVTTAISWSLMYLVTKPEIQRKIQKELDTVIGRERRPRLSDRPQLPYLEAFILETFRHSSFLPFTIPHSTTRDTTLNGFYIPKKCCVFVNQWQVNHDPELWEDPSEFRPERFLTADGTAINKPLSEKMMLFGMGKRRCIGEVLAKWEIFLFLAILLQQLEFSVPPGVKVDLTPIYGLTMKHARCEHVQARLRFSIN

[11] = target: DNA dC->dU-editing enzyme APOBEC-3G (Homo sapiens, UniProt Q9HC16); test: Dose Response confirmation of small molecule APOBEC3G DNA Deaminase Inhibitors via a fluorescence-based single-stranded DNA deaminase assay. [Related pubchem assays (depositor defined):AID493012, AID493028]; type: functional
[12] = target: DNA dC->dU-editing enzyme APOBEC-3A (Homo sapiens, UniProt P31941); test: APOBEC3A DNA deaminase inhibitors, dose response, biochemical (AID 504722); type: functional
[13] = target: T8, Microphthalmia-associated transcription factor (Homo sapiens, UniProt O75030); test: TRPM1 promoter luciferase signal decrease, dose response, MITF inhibitor project, cell-based, SK-MEL-5, cherry-picked, set 3 (AID 493073); type: functional
T8 sequence (O75030 whole entry): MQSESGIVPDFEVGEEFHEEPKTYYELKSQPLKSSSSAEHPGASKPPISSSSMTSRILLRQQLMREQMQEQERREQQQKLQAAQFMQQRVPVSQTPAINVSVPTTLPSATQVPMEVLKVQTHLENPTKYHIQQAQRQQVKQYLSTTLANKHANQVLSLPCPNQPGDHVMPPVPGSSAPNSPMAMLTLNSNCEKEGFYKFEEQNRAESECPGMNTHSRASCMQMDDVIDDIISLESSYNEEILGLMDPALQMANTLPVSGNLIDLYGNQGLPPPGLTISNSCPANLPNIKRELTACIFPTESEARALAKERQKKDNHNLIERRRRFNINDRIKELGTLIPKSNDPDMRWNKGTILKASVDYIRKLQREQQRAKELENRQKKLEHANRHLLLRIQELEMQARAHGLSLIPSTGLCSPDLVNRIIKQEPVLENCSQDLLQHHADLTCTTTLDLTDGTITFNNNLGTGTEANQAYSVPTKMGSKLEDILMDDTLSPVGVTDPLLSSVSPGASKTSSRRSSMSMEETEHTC

[14] = cytotoxicity toward NIH3T3 fibroblasts, dose response, counter-screen, cell-based, ATP luminescence, mouse fibroblasts (AID 2010); type: functional;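 note: cells exposed to compound for about 90 hours before reading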
A-375 = test: MITF: Counter assay: A375 proliferation Measured in Cell-Based System Using Plate Reader - 2084-03_Inhibitor_Dose_DryPowder_Activity. [Related pubchem assays (depositor defined):AID488944]; type: functional; details: Homo sapiens
[15] = Shn3 3'UTR reporter inhibitors, dose response, cell-based, Clone20 osteoblasts, firefly luciferase, cherry-picked (AID 624132); type: functional;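 note: firefly luciferase luminescence from reporter carrying the Shn3 3'UTR in osteoblasts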
[16] = HepG2 cell cytotoxicity, dose response, cytotoxicity control for Shn3 inhibitor project, CellTiter-Glo, cherry-picked (AID 624134); type: functional, cell-based
[17] = inhibitors of intracellular T. cruzi replication, confirmation, NIH3T3 host cells, beta-gal luminescence (AID 2044); type: functional, cell-based;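 note: intracellular parasites grown in NIH/3T3 mouse fibroblasts as host cells; luminescent beta-galactosidase reporter signal from transgenic T. cruzi replicating inside host cells; inhibitors lower the luminescence signal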
[18] = target: Bifunctional protein GlmU (Mycobacterium tuberculosis, UniProt P9WMN3); test: Inhibitors of Mycobacterial Glucosamine-1-phosphate acetyl transferase (GlmU). Secondary screen.; set-up: species or system Mycobacterium tuberculosis H37Rv
[19] = target: Induced myeloid leukemia cell differentiation protein Mcl-1 (Homo sapiens, UniProt Q07820); type: functional
Induced myeloid leukemia cell differentiation protein Mcl-1, sequence (Q07820 whole entry): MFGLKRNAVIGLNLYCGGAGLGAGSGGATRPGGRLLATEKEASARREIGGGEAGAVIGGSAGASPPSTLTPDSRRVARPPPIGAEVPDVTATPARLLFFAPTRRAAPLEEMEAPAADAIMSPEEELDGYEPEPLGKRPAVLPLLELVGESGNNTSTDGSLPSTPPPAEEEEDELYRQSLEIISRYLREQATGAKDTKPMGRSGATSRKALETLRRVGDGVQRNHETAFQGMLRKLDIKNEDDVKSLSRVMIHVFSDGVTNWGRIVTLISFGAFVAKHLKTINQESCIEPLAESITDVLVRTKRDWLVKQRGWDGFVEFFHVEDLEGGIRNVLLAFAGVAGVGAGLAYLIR

Intestinal-type alkaline phosphatase (Mus musculus, UniProt P24822), sequence (P24822 whole entry, the tested form may be a part): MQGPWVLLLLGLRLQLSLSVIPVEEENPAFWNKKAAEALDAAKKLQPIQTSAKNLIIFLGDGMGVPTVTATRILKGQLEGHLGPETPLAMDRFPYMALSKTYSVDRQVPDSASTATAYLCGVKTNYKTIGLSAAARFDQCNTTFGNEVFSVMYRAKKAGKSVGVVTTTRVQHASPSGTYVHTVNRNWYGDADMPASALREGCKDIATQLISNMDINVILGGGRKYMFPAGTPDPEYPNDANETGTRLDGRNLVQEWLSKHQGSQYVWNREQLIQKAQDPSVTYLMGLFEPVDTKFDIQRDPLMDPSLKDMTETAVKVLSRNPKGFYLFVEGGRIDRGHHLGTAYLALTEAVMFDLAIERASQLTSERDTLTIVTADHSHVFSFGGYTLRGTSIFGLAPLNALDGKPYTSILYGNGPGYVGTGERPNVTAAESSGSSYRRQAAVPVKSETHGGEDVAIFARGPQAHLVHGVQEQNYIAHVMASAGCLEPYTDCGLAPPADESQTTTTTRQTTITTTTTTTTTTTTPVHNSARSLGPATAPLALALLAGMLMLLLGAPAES
Intestinal-type alkaline phosphatase (Homo sapiens, UniProt P09923), sequence (P09923 whole entry): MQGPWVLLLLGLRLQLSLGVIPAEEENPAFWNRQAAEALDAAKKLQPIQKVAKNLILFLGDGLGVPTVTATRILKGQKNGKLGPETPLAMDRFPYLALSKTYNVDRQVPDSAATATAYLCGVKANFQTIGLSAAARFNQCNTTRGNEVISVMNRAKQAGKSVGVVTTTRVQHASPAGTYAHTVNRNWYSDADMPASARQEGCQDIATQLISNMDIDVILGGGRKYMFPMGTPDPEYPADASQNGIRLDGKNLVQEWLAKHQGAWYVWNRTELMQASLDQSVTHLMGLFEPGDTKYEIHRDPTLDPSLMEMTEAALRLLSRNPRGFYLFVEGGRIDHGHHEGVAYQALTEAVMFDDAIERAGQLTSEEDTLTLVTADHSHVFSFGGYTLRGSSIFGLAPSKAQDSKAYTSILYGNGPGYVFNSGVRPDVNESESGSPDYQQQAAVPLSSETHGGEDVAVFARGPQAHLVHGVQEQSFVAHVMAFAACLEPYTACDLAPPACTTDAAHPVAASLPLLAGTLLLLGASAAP
Genome polyprotein, sequence (P29990 2492-3391 limits assumed): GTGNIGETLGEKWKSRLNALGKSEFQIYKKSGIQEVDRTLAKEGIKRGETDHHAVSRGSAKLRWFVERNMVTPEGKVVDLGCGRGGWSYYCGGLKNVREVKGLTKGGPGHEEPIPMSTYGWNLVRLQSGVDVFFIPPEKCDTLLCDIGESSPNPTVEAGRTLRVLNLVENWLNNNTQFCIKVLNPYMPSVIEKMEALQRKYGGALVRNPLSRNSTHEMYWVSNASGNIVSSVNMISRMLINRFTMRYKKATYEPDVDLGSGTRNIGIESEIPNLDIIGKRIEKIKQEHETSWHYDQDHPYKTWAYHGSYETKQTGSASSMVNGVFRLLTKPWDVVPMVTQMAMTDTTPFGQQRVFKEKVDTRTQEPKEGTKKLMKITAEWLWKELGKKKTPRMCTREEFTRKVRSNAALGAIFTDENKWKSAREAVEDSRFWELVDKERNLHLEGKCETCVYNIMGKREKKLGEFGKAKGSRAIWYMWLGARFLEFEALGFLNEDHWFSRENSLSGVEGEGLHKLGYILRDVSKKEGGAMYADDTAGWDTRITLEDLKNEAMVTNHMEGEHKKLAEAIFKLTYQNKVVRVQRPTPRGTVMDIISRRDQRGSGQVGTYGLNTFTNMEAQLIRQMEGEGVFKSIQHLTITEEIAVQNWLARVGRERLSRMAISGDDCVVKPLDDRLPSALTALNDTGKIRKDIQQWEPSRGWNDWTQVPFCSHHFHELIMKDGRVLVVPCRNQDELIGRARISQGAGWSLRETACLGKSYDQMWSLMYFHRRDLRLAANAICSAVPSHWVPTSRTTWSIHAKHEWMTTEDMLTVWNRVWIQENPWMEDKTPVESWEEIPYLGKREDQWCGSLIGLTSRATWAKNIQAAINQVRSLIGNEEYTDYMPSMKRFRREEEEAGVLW
DNA dC->dU-editing enzyme APOBEC-3G, sequence (Q9HC16 whole entry): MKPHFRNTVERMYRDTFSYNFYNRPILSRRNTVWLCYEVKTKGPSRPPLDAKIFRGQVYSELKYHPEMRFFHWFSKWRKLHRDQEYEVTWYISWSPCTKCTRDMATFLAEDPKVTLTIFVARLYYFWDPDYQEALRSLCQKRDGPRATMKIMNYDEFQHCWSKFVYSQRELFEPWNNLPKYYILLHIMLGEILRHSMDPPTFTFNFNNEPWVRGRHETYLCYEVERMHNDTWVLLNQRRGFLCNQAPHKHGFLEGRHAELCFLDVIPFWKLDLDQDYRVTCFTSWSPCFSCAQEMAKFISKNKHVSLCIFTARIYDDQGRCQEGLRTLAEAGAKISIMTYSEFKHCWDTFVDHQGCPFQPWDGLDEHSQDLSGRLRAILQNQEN
CAAX prenyl protease 1, sequence (P47154 whole entry): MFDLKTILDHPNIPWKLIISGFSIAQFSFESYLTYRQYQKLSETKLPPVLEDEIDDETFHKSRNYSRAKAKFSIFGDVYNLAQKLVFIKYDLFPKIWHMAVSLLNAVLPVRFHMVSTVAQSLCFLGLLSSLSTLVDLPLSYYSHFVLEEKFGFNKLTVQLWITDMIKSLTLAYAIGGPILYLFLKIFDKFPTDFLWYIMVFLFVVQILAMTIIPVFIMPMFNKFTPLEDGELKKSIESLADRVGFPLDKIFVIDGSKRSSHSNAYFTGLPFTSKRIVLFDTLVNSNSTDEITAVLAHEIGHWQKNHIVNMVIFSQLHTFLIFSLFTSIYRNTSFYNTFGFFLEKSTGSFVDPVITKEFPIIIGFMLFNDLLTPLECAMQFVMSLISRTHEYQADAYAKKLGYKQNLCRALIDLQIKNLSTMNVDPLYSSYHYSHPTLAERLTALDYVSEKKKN
DNA dC->dU-editing enzyme APOBEC-3A, sequence (P31941 whole entry): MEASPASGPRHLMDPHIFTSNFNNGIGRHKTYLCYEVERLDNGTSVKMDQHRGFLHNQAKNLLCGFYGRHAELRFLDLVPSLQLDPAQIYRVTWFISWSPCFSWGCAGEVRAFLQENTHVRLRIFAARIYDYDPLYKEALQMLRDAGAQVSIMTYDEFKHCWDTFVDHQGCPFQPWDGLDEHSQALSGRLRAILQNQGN
DNA (cytosine-5)-methyltransferase 1, sequence (P26358 whole entry): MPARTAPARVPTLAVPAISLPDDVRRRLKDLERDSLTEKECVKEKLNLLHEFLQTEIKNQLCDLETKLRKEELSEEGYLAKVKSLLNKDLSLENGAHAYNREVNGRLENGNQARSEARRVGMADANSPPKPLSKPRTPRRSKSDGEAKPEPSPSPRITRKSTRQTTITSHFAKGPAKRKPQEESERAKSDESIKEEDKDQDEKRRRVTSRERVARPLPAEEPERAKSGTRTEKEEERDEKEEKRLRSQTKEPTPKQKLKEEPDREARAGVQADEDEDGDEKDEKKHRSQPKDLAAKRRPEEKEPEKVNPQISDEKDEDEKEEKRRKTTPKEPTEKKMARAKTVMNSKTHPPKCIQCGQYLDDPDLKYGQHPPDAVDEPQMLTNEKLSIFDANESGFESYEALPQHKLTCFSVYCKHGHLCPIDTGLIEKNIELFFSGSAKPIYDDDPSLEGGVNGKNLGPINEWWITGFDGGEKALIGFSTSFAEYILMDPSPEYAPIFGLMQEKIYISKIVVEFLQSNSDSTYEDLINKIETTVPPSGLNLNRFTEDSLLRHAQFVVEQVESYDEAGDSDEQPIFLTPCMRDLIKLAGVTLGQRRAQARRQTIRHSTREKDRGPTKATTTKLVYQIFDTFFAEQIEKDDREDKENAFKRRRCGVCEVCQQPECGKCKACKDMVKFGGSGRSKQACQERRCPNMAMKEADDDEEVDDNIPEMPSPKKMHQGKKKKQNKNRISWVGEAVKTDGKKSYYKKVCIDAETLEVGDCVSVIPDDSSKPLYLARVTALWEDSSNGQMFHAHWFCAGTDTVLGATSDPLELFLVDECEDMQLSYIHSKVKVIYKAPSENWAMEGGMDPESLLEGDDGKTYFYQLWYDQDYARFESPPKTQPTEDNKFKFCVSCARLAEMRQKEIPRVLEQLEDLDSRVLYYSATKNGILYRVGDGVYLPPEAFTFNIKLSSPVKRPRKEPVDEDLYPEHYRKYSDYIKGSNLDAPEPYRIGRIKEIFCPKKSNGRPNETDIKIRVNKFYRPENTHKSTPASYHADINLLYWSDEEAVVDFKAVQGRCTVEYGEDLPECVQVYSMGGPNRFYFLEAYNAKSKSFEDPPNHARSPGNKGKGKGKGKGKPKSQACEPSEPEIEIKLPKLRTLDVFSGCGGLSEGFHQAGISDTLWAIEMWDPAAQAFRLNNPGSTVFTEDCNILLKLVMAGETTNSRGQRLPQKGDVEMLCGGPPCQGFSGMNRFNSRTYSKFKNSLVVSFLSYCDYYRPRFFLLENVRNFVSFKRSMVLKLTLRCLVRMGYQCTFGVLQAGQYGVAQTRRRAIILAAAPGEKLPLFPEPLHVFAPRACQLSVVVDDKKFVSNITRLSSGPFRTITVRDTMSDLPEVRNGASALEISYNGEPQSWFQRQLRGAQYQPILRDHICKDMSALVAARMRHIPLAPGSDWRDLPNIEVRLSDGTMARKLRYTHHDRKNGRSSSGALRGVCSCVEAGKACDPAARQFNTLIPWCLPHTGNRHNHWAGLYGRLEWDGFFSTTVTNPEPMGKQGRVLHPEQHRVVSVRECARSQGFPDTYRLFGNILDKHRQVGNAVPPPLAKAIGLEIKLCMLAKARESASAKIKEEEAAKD

Compound: CCN(CC)CCCNC(=O)c1c(O)c2ccccc2n(Cc2ccccc2)c1=O
- EC50 (Hexokinase HKDC1): > 80 µM (inactive)
- IC50 [1]: > 20 µM (inactive)
- EC50 [2]: > 20 µM (not active)
- CC50 [3]: 32 µM (active)
- EC50 [4]: > 20 µM (not active)
- AC50 (Escherichia coli): 23.5 µM (active)

Compound: COc1cc2c(cc1OC)C(C)=NC1(CCCCC1)C2
- AC50 (CAAX prenyl protease 2): 6.87 µM (active)
- AC50 (CAAX prenyl protease 1): 8.72 µM (active)

Compound: CN1C(=O)NC(=O)/C(=C\c2ccc([N+](=O)[O-])o2)C1=O
- IC50 (Genome polyprotein): 42.6 µM (active)
- IC50 [5]: > 100 µM (inactive)
- IC50 [6]: > 100 µM (inactive)
- EC50 [7]: 33.3 µM (active)
- IC50 [8]: > 100 µM (inactive)
- IC50 [9]: 2.08 µM (active)
- EC50 [10]: 20.6 µM (active)

Compound: CS(=O)(=O)N1CCC2(CCN(c3ccccc3)CC2)CC1
- AC50 (Cytochrome P450 2C9): inconclusive
- AC50 (Cytochrome P450 1A2): inconclusive

Compound: Sc1nnc(-c2ccccn2)n1/N=C/c1ccc(Cl)cc1
- IC50 [11]: 3.33 µM (active)
- IC50 [12]: > 100 µM (inactive)

Compound: Cc1ccc(-n2cc(CNCCCn3ccnc3C)c(-c3ccc(F)cc3)n2)cc1
- AC50 [13]: 7.58 µM (active)
- EC50 [14]: 14.4 µM (active)
- AC50 (A-375): 21.2 µM (active)
- AC50 [15]: 20.6 µM (active)
- AC50 [16]: 16.7 µM (active)
- EC50 [17]: 1.77 µM (active)

Compound: O=C1CSC(=S)N1/N=C/c1ccc(O)c(O)c1O
- IC50 [5]: > 100 µM (inactive)
- IC50 [6]: 4.15 µM (active)
- EC50 [7]: 5.17 µM (inconclusive)
- IC50 [18]: 7.79 µM (active)
- IC50 [19]: 1.17 µM (active)
- IC50 [8]: 58.5 µM (active)
- EC50 [10]: 0.668 µM (inconclusive)
